According to the supplement of paper PMC10307832:

How the values were obtained:
Assay in all cases: relative viability (nuclei count vs DMSO), 5 days (fraction); higher = more cells survive
[1] = compound: Cc1ccc2nc(NCCN)c3ncc(C)n3c2c1 + COc1cccc2cc(-c3nc([C@H]4CC[C@H](C(=O)O)CC4)n4ncnc(N)c34)[nH]c12 [OSI-027] (partner 0.5 µM)
Outline: (§1)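 Lung cancer cell lines were pin-tool dosed in 1536-well plates on the day after seeding, with either a lone drug or a fixed anchor-drug dose plus five library-drug doses (not always all listed) in √10 steps. Nuclei were counted on 4× images after 5 days. Relative viability is the ratio of treated-well to vehicle-well nuclei counts, with each value a median of duplicate plates.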

[2] = compound: O=C(/C=C/c1ccccc1)NC(NC(=S)Nc1cccc2cccnc12)C(Cl)(Cl)Cl [Salubrinal] + CCNC(=O)c1noc(-c2cc(C(C)C)c(O)cc2O)c1-c1ccc(CN2CCOCC2)cc1 [Luminespib] (partner 0.01 µM)
Outline: as §1

[3] = compound: O=C(/C=C/c1ccccc1)NC(NC(=S)Nc1cccc2cccnc12)C(Cl)(Cl)Cl [Salubrinal] + CS(=O)(=O)CCNCc1ccc(-c2ccc3ncnc(Nc4ccc(OCc5cccc(F)c5)c(Cl)c4)c3c2)o1 [Lapatinib] (partner 2 µM)
Outline: as §1

[4] = compound: O=C(/C=C/c1ccccc1)NC(NC(=S)Nc1cccc2cccnc12)C(Cl)(Cl)Cl [Salubrinal] + NC(=O)Nc1cc(-c2cccc(F)c2)sc1C(=O)N[C@H]1CCCNC1 [AZD7762] (partner 0.2 µM)
Outline: as §1

Cell Line	relative viability ([1]; first compound 0.04 µM)	relative viability ([1]; first compound 0.1265 µM)	relative viability ([1]; first compound 0.4 µM)	relative viability ([1]; first compound 1.265 µM)	relative viability ([1]; first compound 4 µM)	relative viability ([2]; first compound 0.08 µM)	relative viability ([2]; first compound 0.253 µM)	relative viability ([2]; first compound 0.8 µM)	relative viability ([2]; first compound 2.53 µM)	relative viability ([2]; first compound 8 µM)	relative viability ([3]; first compound 0.08 µM)	relative viability ([3]; first compound 0.253 µM)	relative viability ([3]; first compound 0.8 µM)	relative viability ([3]; first compound 2.53 µM)	relative viability ([3]; first compound 8 µM)	relative viability ([4]; first compound 0.08 µM)	relative viability ([4]; first compound 0.253 µM)	relative viability ([4]; first compound 0.8 µM)	relative viability ([4]; first compound 2.53 µM)	relative viability ([4]; first compound 8 µM)
NCI-H2347	0.373	0.503	0.386	0.425	0.223	0.786	0.63	0.381	0.512	0.403	0.736	0.903	0.967	0.923	0.891	0.537	0.82	0.919	0.749	0.744
EKVX	0.754	0.688	0.658	0.71	0.617	0.902	0.969	0.839	0.86	0.891	0.2	0.239	0.199	0.181	0.216	0.78	0.591	0.999	0.721	0.757
HOP-62	0.93	0.83	0.582	0.848	0.813	0.936	0.676	0.968	0.882	0.861	1.06	0.927	1.01	1.16	0.968	0.589	0.468	0.958	0.689	0.441
NCI-H2126	0.724	0.733	0.661	0.667	0.646	0.958	0.833	1.03	0.951	0.877	0.704	0.701	0.801	0.82	0.707	1.05	0.936	1.06	0.992	0.909
NCI-H1944	0.391	0.376	0.341	0.443	0.403	0.792	1.04	0.807	0.733	0.831	0.583	0.899	0.804	0.902	0.846	0.563	0.471	0.472	0.433	0.596
EPLC-272H	0.366	0.296	0.32	0.346	0.317	0.382	0.547	0.156	0.275	0.164	0.838	0.804	1.32	0.93	0.761	0.229	0.191	0.304	0.229	0.156
PC-3 [JPC-3]	0.776	0.83	0.734	0.822	0.767	0.747	0.511	0.671	0.736	0.571	0.436	0.423	0.459	0.484	0.472	0.833	0.67	0.923	0.928	0.671
NCI-H650	0.558	0.585	0.443	0.538	0.513	0.753	0.791	0.845	0.786	0.767	0.696	0.84	1.42	1.05	0.822	1.01	1.19	1.04	0.953	0.883
NCI-H838	0.462	0.397	0.445	0.385	0.398	0.264	0.258	0.285	0.341	0.272	1.1	0.914	1.23	1.03	0.674	0.961	0.957	1.06	0.962	0.951
NCI-H2405	0.694	0.628	0.686	0.623	0.636	0.591	0.865	0.62	0.612	0.668	1.01	1.03	1.13	1.07	1.09	0.872	0.704	0.835	0.813	0.664
NCI-H1395	0.672	0.67	0.558	0.767	0.655	0.761	0.701	0.774	0.729	0.644	0.953	0.973	1.2	0.819	0.858	0.376	0.443	0.389	0.432	0.385
NCI-H1915	0.641	0.605	–	0.696	0.594	0.918	0.559	1.26	0.71	0.752	0.981	0.683	1.04	1	0.963	0.713	–	0.718	0.71	0.676
CAL-12T	0.798	0.572	0.824	0.76	0.52	0.393	0.224	0.428	0.449	0.518	0.804	0.688	0.629	0.663	0.636	0.625	0.657	0.741	0.577	0.619
LXF-289	0.898	0.79	0.901	0.872	0.776	0.74	0.595	0.569	0.727	0.643	0.984	0.778	0.913	0.931	0.804	1.25	1.06	1.17	1.09	0.931
NCI-H460	0.674	0.598	0.67	0.718	0.537	0.0402	0.0238	0.031	0.0302	0.0364	1.6	0.445	1.76	0.948	0.75	0.627	0.546	0.722	0.711	0.552
201T	0.863	0.586	0.761	0.805	0.64	1.06	1.05	1.11	1.09	1.07	1.03	1.06	1.06	1.07	1.06	0.627	0.616	0.741	0.648	0.637
